Like-named read-outs stand apart in the source and are kept apart here.
Legend:
androgen receptor (AR) = target: T1, androgen receptor (AR) (Homo sapiens, UniProt P10275, T878A); assay: eGFP cellular AR transcription assay; format: cell-based
T1 construct: stably transfected eGFP-expressing LNCaP human prostate cancer cells (LN-ARR2PB-eGFP) containing an androgen responsive probasin-derived promoter; endogenous in cells; host or cells: LNCaP (LN-ARR2PB-eGFP)
T1 sequence (P10275 1-920 T878A): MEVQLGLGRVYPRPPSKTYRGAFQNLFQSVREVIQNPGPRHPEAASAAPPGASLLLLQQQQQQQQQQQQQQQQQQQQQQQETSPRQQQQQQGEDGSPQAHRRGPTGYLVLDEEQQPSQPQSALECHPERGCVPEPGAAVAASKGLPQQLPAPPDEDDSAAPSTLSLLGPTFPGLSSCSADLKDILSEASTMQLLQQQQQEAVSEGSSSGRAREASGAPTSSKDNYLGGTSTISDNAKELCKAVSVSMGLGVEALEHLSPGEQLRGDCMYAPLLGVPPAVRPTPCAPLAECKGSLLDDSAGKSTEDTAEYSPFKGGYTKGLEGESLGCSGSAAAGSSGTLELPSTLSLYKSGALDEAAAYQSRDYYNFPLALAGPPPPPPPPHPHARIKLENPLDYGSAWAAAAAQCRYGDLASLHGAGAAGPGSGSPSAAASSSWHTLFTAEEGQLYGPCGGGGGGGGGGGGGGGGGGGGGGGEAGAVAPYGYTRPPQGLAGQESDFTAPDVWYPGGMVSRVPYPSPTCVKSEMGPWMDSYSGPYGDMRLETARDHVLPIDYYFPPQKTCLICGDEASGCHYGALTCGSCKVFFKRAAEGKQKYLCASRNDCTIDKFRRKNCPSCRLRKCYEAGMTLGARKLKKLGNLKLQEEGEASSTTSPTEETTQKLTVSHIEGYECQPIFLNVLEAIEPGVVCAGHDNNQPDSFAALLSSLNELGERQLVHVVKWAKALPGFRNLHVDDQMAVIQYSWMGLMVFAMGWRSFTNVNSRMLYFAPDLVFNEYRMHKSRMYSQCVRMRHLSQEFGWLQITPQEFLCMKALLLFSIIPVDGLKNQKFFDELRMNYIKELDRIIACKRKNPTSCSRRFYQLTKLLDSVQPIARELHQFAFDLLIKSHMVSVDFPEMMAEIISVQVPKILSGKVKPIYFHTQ
Summary of the method: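 AR transcriptional activity is read as eGFP expression from a probasin-derived androgen-responsive promoter. Compound titrated 0-100 μM in the presence of 0.1 nM R1881; 35,000 cells/well.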

PSA = assay: Prostate Surface Antigen (PSA) assay, PSA excreted into the media; format: cell-based, human; details: same plates as eGFP assay
Procedure: The evaluation of PSA excreted into the media was performed in parallel to the eGFP assay using the same plates (see above description). After the cells were incubated for 3 days 150 μl of the media was taken from each well, and added to 150 μl of PBS.

[1] = LN-ARR2PBeGFP LNCaP cells, 0.1 nM R1881, 3 days incubation, read-out: eGFP IC50
[2] = Homo sapiens, 72 h, PSA excreted into media, 3 days incubation, read-out: PSA IC50
[3] = LN-ARR2PB-eGFP LNCaP cells, 0.1 nM R1881, 3 days, 0-100 μM compound, read-out: IC50 (eGFP)
[4] = Homo sapiens, 72 h, media after 3 days, read-out: IC50 (PSA)
[5] = LN-ARR2PBeGFP LNCaP cells, 0.1 nM R1881, 3 days incubation
[6] = PSA excreted into media, 3 days incubation
[7] = PSA excreted into media, 3 days incubation, read-out: PSA IC50

| IC50 (androgen receptor (AR); [1]) | IC50 (PSA; [2]) | SMILES | further results |
| --- | --- | --- | --- |
| 1900 nM | 1250 nM | O=Nc1c(-c2c[nH]c3ccccc23)[nH]c2ccccc12 [Compound 13167] | – |
| – | – | Cc1cccc2cnn(-c3ccc4ccccc4n3)c12 [13 575] | IC50 (androgen receptor (AR); [3]): 3500 nM; IC50 (PSA; [4]): 1360 nM |
| 300 nM | 303 nM | Fc1cc2c(-c3ccc4cccc(Cl)c4n3)c[nH]c2c(F)c1F [Compound 13773] | – |
| 500 nM | 460 nM | Clc1ccccc1/N=N/c1c[nH]c2ccccc12 [Compound 13255] | – |
| – | – | Cc1ccc2nc(-n3ccc4cccc(C)c43)ccc2c1 [Compound 13647] | eGFP IC50 (androgen receptor (AR); [5]): Inactive; PSA IC50 (PSA; [6]): Inactive |
| 2300 nM | – | CC1(C)c2ccccc2NC1c1c[nH]c2ncccc12 (stereo not shown) [Compound 13560] | IC50 (PSA; [7]): 7500 nM |
| – | – | Cc1cc(F)cc2c(-c3cnc4cccc(Cl)c4n3)c[nH]c12 [Compound 13705] | eGFP IC50 (androgen receptor (AR); [5]): Inactive; PSA IC50 (PSA; [6]): Inactive |
| 69 nM | 68 nM | Fc1cccc2ccc(-c3c[nH]c4ccccc34)nc12 [Compound 13688] | – |
| – | – | c1ccc(-c2ccc(-c3c[nH]c4ncccc34)cc2)cc1 [13 715] | IC50 (androgen receptor (AR); [3]): 4080 nM; IC50 (PSA; [4]): 350 nM |
| – | – | O=[N+]([O-])c1cccc2nc(-c3c[nH]c4c(F)cc(F)cc34)ccc12 [Compound 13670] | eGFP IC50 (androgen receptor (AR); [5]): Inactive; PSA IC50 (PSA; [6]): Inactive |
| 304 nM | 255 nM | CNC(=O)c1cccc2nc(-c3c[nH]c4c(C#N)cc(F)cc34)ccc12 [Compound 13731] | – |
| 3000 nM | 1900 nM | CC1(C)c2cc(Br)ccc2NC1c1c[nH]c2ccccc12 (stereo not shown) [Compound 13511] | – |
| 290 nM | 220 nM | Fc1ccc2nc(-c3c[nH]c4c(F)c(F)c(F)cc34)ccc2c1 [Compound 13749] | – |
| – | – | Cc1cccc2c(-c3cnc4ccccc4c3)c[nH]c12 [13 654] | IC50 (androgen receptor (AR); [3]): 920 nM; IC50 (PSA; [4]): 160 nM |
| – | – | Cc1cccc2c(-c3nc4ccccc4s3)c[nH]c12 [13 760] | IC50 (androgen receptor (AR); [3]): 100 nM; IC50 (PSA; media after 3 days, read-out: IC50 (PSA)): 520 nM |
| – | – | Cc1cccc2c(-c3ccc(-c4ccccc4)cc3)c[nH]c12 [13 733] | IC50 (androgen receptor (AR); [3]): 3810 nM; IC50 (PSA; [4]): 919 nM |
| 270 nM | 210 nM | Cc1c(F)ccc2c(-c3ccc4cccc(Cl)c4n3)c[nH]c12 [Compound 13665] | – |
| 2110 nM | – | CC1(C)c2ccccc2NC1c1c[nH]c2ncccc12 (stereo not shown) [Compound 13556] | IC50 (PSA; [7]): 2180 nM |
| 7300 nM | 4540 nM | Clc1cc(Cl)cc(/N=C/c2c[nH]c3ccccc23)c1 [Compound 13304] | – |
| 73 nM | – | Cc1cccc2c(-c3cnc4ccccc4n3)c[nH]c12 [Compound 13699] | IC50 (PSA; [7]): 73 nM |
| – | – | Brc1ccc(-c2c[nH]c3cccnc23)cc1 [13 737] | IC50 (androgen receptor (AR); [3]): 80 nM; IC50 (PSA; [4]): 37 nM |
| 3200 nM | 1730 nM | Cc1ccc2[nH]cc(-c3ccc4ccccc4n3)c2c1 [Compound 13577] | – |
| 2500 nM | 1700 nM | Cc1ccc(Cl)c2c(-c3ccc4ccccc4n3)c[nH]c12 [Compound 13681] | – |

Source: patent US10633338B2, “Binding Function 3 (BF3) site compounds as therapeutics and methods for their use” (THE UNIVERSITY OF BRITISH COLUMBIA, priority 2014, dated 2020)
